From patent publication US10093675B2, “6,8-disubstituted-9-(heterocyclyl)purines, compositions containing these derivatives and their use in cosmetic and medicinal applications” (USTAV EXPERIMENTALNI BOTANIKY AV CR, V.V.I., priority 2014, dated 2018)
Like-named read-outs stand apart in the source and are kept apart here.

Experiments:
[1] = system: detached leaves of Triticum aestivum cv. Hereward; experiment: Membrane lipid peroxidation (MDA, TBA method) in detached wheat leaves during dark senescence; format: in vivo; conditions: four days in the dark, Control 18.9 (±2.2)
Procedure: A typical symptom associated with senescence as a direct consequence of increased reactive oxygen species is lipid peroxidation. Therefore the levels of MDA, a decomposition product of lipid peroxidation, were measured in detached wheat leaves that were exposed to the prepared novel derivatives and kinetin for four days in the dark as described in Example 8. MDA levels were measured using a thiobarbituric acid (TBA) method. In detail, 100 mg of fresh plant material was homogenized by high speed shaking in a ball mill (MM301, Retsch, Germany) with 1 mL of 80% methanol. The crude extract was centrifuged at 10,000×g for 5 min, and 100 μL aliquot of supernatant was vortexed with 100 μL of 0.5% (w/v) TBA containing 0.1% (w/v) trichloroacetic acid, and the resulting solution was then incubated for 30 min at 95° C. The samples were quickly cooled on ice and recentrifuged for 5 min at 1000×g. The absorbance of supernatant was measured at 532 nm with background subtraction at 600 nm and the amount of MDA-TBA complex was calculated from the coefficient of absorbance 155 mM^−1cm^−1.
Seeds of winter wheat, Triticum aestivum cv. Hereward, were washed under running water for 24 hours and then sown on vermiculite soaked with Knop's solution. They were placed in the grown chamber at 25° C. with a 16/8 hours light period at […]. After 7 days, the first leaf was fully developed and the second leaf had started to grow. A tip section of the first leaf, approximately 35 mm long, was removed from 5 seedlings and trimmed slightly to a combined weight of 100 mg. The basal ends of the five leaf tips were placed in the wells of a microtiter polystyrene plate containing […] of a cytokinin solution each. The entire plate was inserted into a plastic box lined with paper tissues soaked in distilled water to prevent leaf sections from drying out. After 96 hours incubation in the dark at 25° C., the leaves were removed and chlorophyll extracted by heating at 80 C for 10 min in 5 ml of 80% ethanol (v/v). The sample volume was then restored to 5 ml by the addition of 80% ethanol (v/v). The absorbance of the extract was recorded at 665 nm. In addition, chlorophyll extracts from fresh leaves and leaf tips incubated in deionized water were measured. From the obtained data, the concentration with highest activity was selected for each compound tested. Relative activity of the compound at this concentration was calculated (see Table 6 below). The activity obtained for 10^−4 M kinetin (Kin) was set as 100%. The values shown are means of five replicates and the whole experiment was repeated twice.

[2] = Radical scavenging activity determined by ORAC (Oxygen Radical Absorbance Capacity); format: biochemical; conditions: Mean ± SD (n = 3); net area under the curve relative to trolox, equimolar basis
Procedure: The ability of compounds to scavenge free radicals in vitro was determined by Oxygen Radical Absorbance Capacity (ORAC) method. Fluorescein (100 μL, […]) and 25 μL of compound solution were added into each working well in a 96-well microplate preincubated at 37° C. Thereafter, 25 μL of 250 mM AAPH was quickly added, microplate was shaken for 5 s and the fluorescence (Ex. 485 nm, Em. 510 nm) was read every 3 min over 90 min by using microplate reader Infinite 200 (TECAN, Switzerland). The net area under the curve was used to express antioxidant activity relative to trolox which was used as a standard.

[3] = system: human diploid fibroblasts (HDF cells; HDF25, HDF45, HDF80); experiment: Inhibition of human cell aging: senescent cells by beta-galactosidase staining; format: cell-based
Procedure: In this example, human diploid fibroblasts (HDF cells of various passage levels: passage 25—designated HDF25; passage 45—designated HDF45; passage 80—designated HDF80) were stained for beta-galactosidase activity. The medium used for the cell cultivation was removed the cells were washed twice in […], and fixed in 2-3 ml of fixing solution comprised of a 2% formaldehyde and 0.2% glutaraldehyde in PBS. The cells were incubated at room temperature for 5 minutes, and then washed twice with PBS. The cells were subsequently incubated at 37° C. […] In this experiment, senescent cells, but no other cells were stained blue due to the action of beta-galactosidase on the substrate.

melanoma cell line G-361 = experiment: In vitro cytotoxic activity (Calcein AM), G-361; format: cell-based, human; conditions: read-out: Cell line tested/IC50 (μmol/L) G-361
From the text: (§1) Because toxic compounds negatively influence metabolic processes of cells, many standard cytotoxicity assays are based on measurement of metabolisation rate of various artificial substrates. Resulting product is then quantified, for example, by means of spectrometry. The assays can be easily modified for use in 96-well plates. For evaluation of cytotoxicity of the […] of this invention, a microtiter assay based on quantification of metabolisation of Calcein AM was used. The assay is widely used in drug screening programs and in chemosensitivity testing. In live cells, Calcein AM is enzymatically hydrolysed and accumulation of resulting calcein is manifested by green fluorescence.
(§2) The following human cell lines were used for routine screening of the compounds: normal diploid fibroblasts BJ, T-lymphoblastic leukemia cell line CEM, promyelocytic leukemia cell line HL-60, erytroid leukemia cell line K-562, breast carcinoma cell line MCF-7, osteosarcoma cell line HOS and melanoma cell line G-361. The cells were maintained in Nunc/Corning 80 cm^2 plastic tissue culture flasks and cultured in cell culture medium (DMEM with 5 g/l glucose, 2 mM glutamine, 100 U/ml penicillin, 100 mmg/ml streptomycin, 10% fetal calf serum and sodium bicarbonate). The cell suspensions were prepared and diluted according to the particular cell type and the expected target cell density (2.500-30.000 cells per well based on cell growth characteristics) and pipetted (80 μl) into 96-well plates. Inoculates were allowed a pre-incubation period of 24 hours at 37° C. and 5% CO2 for stabilization. Tested compound was added in total volume of 20 μl of water at time zero. Usually, test compound was evaluated at six 3-fold dilutions. In routine testing, the highest concentration tested was 100 μM, but it could have been adjusted because of limited solubility of a compound. All drug concentrations were tested in triplicates.
(§3) Incubations of cells with the test compounds lasted for 72 hours at 37° C., in 5% CO2 atmosphere and 100% humidity. At the end of incubation period Calcein AM in PBS was added into final concentration of 1 μg/ml. After another 1 hour of incubation fluorescence (FD) was measured with the Labsystem FIA Reader Fluoroscan Ascent (UK). Growth inhibition (GI) was estimated using the following equitation: GI=(mean FDdrug exposed wells−mean FDblank)/(mean FDcontrol wells−mean FDblank)×100%. The GI50 value, the drug concentration causing 50% reduction of Calcein AM conversion, was calculated from the obtained dose response curves.

[4] = system: breast carcinoma cell line MCF-7; experiment: In vitro cytotoxic activity (Calcein AM), MCF-7; format: cell-based, human; conditions: read-out: Cell line tested/IC50 (μmol/L) MCF7
From the text: as §1, §2, §3

[5] = system: erytroid leukemia cell line K-562; experiment: In vitro cytotoxic activity (Calcein AM), K-562; format: cell-based, human; conditions: read-out: Cell line tested/IC50 (μmol/L) K-562
From the text: as §1, §2, §3

[6] = system: Human diploid fibroblast BJ; experiment: In vitro cytotoxic activity (MTT); format: cell-based; conditions: 72 hours incubation; concentration causing 20% decrease in mitochondrial dehydrogenase activity
Procedure: MTT (metabolic tetrazolium toxicity) assay is a standard colorimetric assay for evaluation of cytotoxicity. Mitochondrial dehydrogenase activity converts yellow MTT into violet formazan which is measured by means of spectrometry.
Human diploid fibroblast BJ (passage 18-22) were seeded into 96-well plate (5.000 cells per well). After 6 hours cultivation medium (DMEM with 5 g/l glucose, 2 mM glutamine, 100 U/ml penicillin, 100 mmg/ml streptomycin, 10% fetal calf serum and sodium bicarbonate) was replaced with the cultivation medium containing test compounds in concentration range of 0-200 µM. Highest concentration was adjusted if the solubility of the compound was limiting. Every concentration was tested in pentaplicate. MTT was added to the cells after 72 hours incubation (final concentration 0.5 mg/ml) and incubation continued for another 3 hours. MTT was solubilised by DMSO and absorbance at 570 nm was measured. Growth inhibition (GI) was estimated using the following equitation: GI=(mean A drug exposed wells−mean Ablank/mean Acontrol wells−mean Ablank)×100%. The GI20 value, the drug concentration causing 20% decrease in mitochondrial dehydrogenase activity, was calculated from the obtained dose response curves.

[7] = system: cytokinin-dependent tobacco callus Nicotiana tabacum L. cv. Wisconsin 38; experiment: Plant cell division: growth of cytokinin-dependent tobacco callus; format: cell-based; conditions: for Activity (%); (s.d.): relative activity at concentration with highest activity, 10^−6 M kinetin set at 100%; for Concentration with highest activity (mol/l): tobacco callus fresh weight increase after four weeks, tested 10^−8 M to 10^−4 M
[8] = system: T-lymphoblastic leukemia cell line CEM; experiment: In vitro cytotoxic activity (Calcein AM), CEM; format: cell-based, human; conditions: 72 hours, read-out: Cell line tested/IC50 (μmol/L) CEM
From the text: as §1, §2, §3

[9] = system: normal diploid fibroblasts BJ; experiment: In vitro cytotoxic activity (Calcein AM), BJ; format: cell-based, human; conditions: 72 hours, read-out: Cell line tested/IC50 (μmol/L) BJ
From the text: as §1, §2, §3

[10] = system: osteosarcoma cell line HOS; experiment: In vitro cytotoxic activity (Calcein AM), HOS; format: cell-based, human; conditions: 72 hours, read-out: Cell line tested/IC50 (μmol/L) HOS
From the text: as §1, §2, §3

[11] = system: excised wheat leaf tips (Triticum aestivum cv. Hereward); experiment: Senescence inhibition on winter wheat leaf segments (retention of chlorophyll); format: in vivo; conditions: 10^−4 mol/L; 96 hours in the dark; activity of kinetin set at 100%
In short: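 First-leaf tips from 7-day-old wheat seedlings stood with their bases in test solution for 96 h in the dark at 25° C. Chlorophyll was then extracted in hot 80% ethanol and read at 665 nm. Activity at each compound's best concentration is relative to 10^−4 M kinetin (100%), as means of five replicates.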

Row | Structure (SMILES) | MDA (nmol/g FW) [1] | ORAC (compound/trolox ratio) [2] | GI20 [6] [µM] | Activity (%); (s.d.) [7] | Activity (%) (s.d.), retention of chlorophyll [11] | IC50 (melanoma cell line G-361; 72 hours) [µmol/L] | IC50 ([4]; 72 hours) [µmol/L] | IC50 ([5]; 72 hours) [µmol/L] | Concentration with highest activity (mol/l) [7] | IC50 [8] [µmol/L] | IC50 [9] [µmol/L] | IC50 [10] [µmol/L] | also measured
1 | Nc1nc2c(NCc3ccco3)ncnc2n1C1CCCCO1 (centres unmarked) [Compound 102, 6-furfurylamino-8-amino-9-(tetrahydropyran-2-yl)-9H-purine] | 10.4 (±0.9) nmol/g FW | 4.5 ± 0.1 |  |  |  |  |  |  |  |  |  |  | 
2 | CN(C)c1nc2c(NCc3ccco3)ncnc2n1C1CCCCO1 (centres unmarked) [Compound 80, 6-Furfurylamino-8-dimethylamino-9-(tetrahydropyran-2-yl)-9H-purine] | 11.3 (±0.9) nmol/g FW | 2.2 ± 0.1 |  |  |  |  |  |  |  |  |  |  | 
3 | OCCCNc1nc2c(NCc3ccco3)ncnc2n1C1CCCCO1 (centres unmarked) [Compound 185, 6-Furfurylamino-8-(3-hydroxypropylamino)-9-(tetrahydropyran-2-yl)-9H-purine] | 10.2 (±1.1) nmol/g FW | 48.3 ± 2.3 |  |  |  |  |  |  |  |  |  |  | 
4 | c1coc(CNc2ncnc3c2ncn3C2CCCCO2)c1 (centres unmarked) [KTHP, kinetin-9-tetrahydropyranyl, reference compound] |  | 0.6 ± 0.1 |  |  |  |  |  |  |  |  |  |  | SENESCENT CELLS (%) HDF25 ([3]; human diploid fibroblasts passage 25, beta-galactosidase staining): 3%; SENESCENT CELLS (%) HDF45 ([3]; human diploid fibroblasts passage 45, beta-galactosidase staining): 4%; SENESCENT CELLS (%) HDF80 ([3]; human diploid fibroblasts passage 80, beta-galactosidase staining): 26%
5 | C/C(=C\CNc1ncnc2c1nc(Cl)n2C1CCCCO1)CO (centres unmarked) [Compound 5, (E)-8-Chloro-6-(4-hydroxy-3-methylbut-2-en-1-ylamino)-9-(tetrahydropyran-2-yl)-9H-purine] | 13.2 (±1.5) nmol/g FW |  | >100 | 124 (±6) % | 118 (±5) % |  |  |  |  |  |  |  | IC50 (melanoma cell line G-361; Homo sapiens, G-361, 72 hours): > 50 µmol/L; IC50 ([4]; Homo sapiens, MCF7, 72 hours): > 50 µmol/L; IC50 ([5]; Homo sapiens, K562, 72 hours): > 50 µmol/L; IC50 ([8]; Homo sapiens): > 50 µmol/L; IC50 ([9]; Homo sapiens, Fibroblast): > 50 µmol/L; IC50 ([10]; Homo sapiens): > 50 µmol/L
6 | C=CCNc1nc2c(NCc3ccco3)ncnc2n1C1CCCCO1 (centres unmarked) [Compound 100, 8-Allylamino-6-furfurylamino-9-(tetrahydropyran-2-yl)-9H-purine] | 10.2 (±1.1) nmol/g FW | 32.4 ± 3.2 |  |  |  |  |  |  |  |  |  |  | 
7 | OCCNc1nc2c(NCc3ccco3)ncnc2n1C1CCCCO1 (centres unmarked) [Compound 181, 6-Furfurylamino-8-(2-hydroxyethylamino)-9-(tetrahydropyran-2-yl)-9H-purine] | 9.5 (±0.5) nmol/g FW | 78.1 ± 3.9 |  |  |  |  |  |  |  |  |  |  | 
8 | Oc1cccc(CNc2ncnc3c2nc(Br)n3C2CCCCO2)c1 (centres unmarked) [Compound 29] | 12.3 (±1.4) nmol/g FW |  | >100 | 112 (±3) % | 117 (±2) % | > 50 | > 50 | > 50 | 10^−6-10^−4 mol/l | > 50 | > 50 | > 50 | 
9 | Oc1cccc(CNc2ncnc3c2nc(Cl)n3C2CCCCO2)c1 (centres unmarked) [Compound 9] | 12.4 (±1.3) nmol/g FW |  | >100 | 108 (±3) % | 115 (±4) % | > 50 | > 50 | > 50 | 10^−6-10^−4 mol/l | > 50 | > 50 | > 50 | 
10 | COc1nc2c(NCc3ccco3)ncnc2n1C1CCCO1 (centres unmarked) [Compound 206] | 10.5 (±0.4) nmol/g FW |  | >100 | 110 (±3) % |  | > 50 | > 50 | > 50 | 10^−6-10^−4 mol/l | > 50 | > 50 | > 50 | 
